Experimental data reported in a compilation of properties of binary mixtures (doi:10.1016/j.molliq.2022.121176).

Experiment: xn = mol fraction of the nth substance listed
Conditions: 298 K, 101.3 kPa

II + CCCCCCCCCCCC[n+]1ccn(C)c1.[I-] gave an electrical conductivity (x2 = 0.25) of 1.39 S/m.
For II + CCCCCC[n+]1ccn(C)c1.[I-], the electrical conductivity (x2 = 0.2) was 3.89 S/m, the electrical conductivity (x2 = 0.25) was 2.93 S/m and the electrical conductivity (x2 = 0.333) was 1.96 S/m. For the same molecule, the electrical conductivity (x2 = 0.5) was 0.429 S/m.
II + CCCC[n+]1ccn(C)c1.[I-] showed an electrical conductivity (x2 = 0.2) of 5.13 S/m, an electrical conductivity (x2 = 0.25) of 4.31 S/m and an electrical conductivity (x2 = 0.5) of 0.735 S/m.
In the case of CCCCCC[n+]1ccn(C)c1.[I-] + II, the electrical conductivity (x1 = 1) is reported as 0.0186 S/m.
CCCC[n+]1ccn(C)c1.[I-] + II showed an electrical conductivity (x1 = 1) of 0.035 S/m.
In the case of CC[n+]1ccn(C)c1.[I-] + II, the electrical conductivity (x1 = 0.2) is reported as 7.17 S/m, the electrical conductivity (x1 = 0.25) is reported as 6.5 S/m and the viscosity (x1 = 0.25) is reported as 18.8 mPa·s. For the same molecule, the electrical conductivity (x1 = 0.333) was 5.08 S/m.
For C=CCn1cc[n+](C)c1.[I-] + II, the electrical conductivity (x1 = 0.2) was 4.07 S/m and the electrical conductivity (x1 = 0.333) was 3.82 S/m.
